Assays:
Test in all cases: relative viability (nuclei count vs DMSO), 5 days (fraction); higher = more cells survive
[1] = compound: CN1CCC(CNc2ccc3ncc(-c4cccc(OC(F)(F)F)c4)n3n2)CC1 [SGI-1776] + CS(=O)(=O)N1CCN(Cc2cc3nc(-c4cccc5[nH]ncc45)nc(N4CCOCC4)c3s2)CC1 [Pictilisib] (partner 1 µM)
Summary of the method: (§1)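 Relative viability is defined as nuclei in treated wells over nuclei in vehicle wells. Duplicate plates were run and medians reported. Lung cancer cell lines in 1536-well plates were dosed by pin tool one day after seeding, with one drug or with a fixed anchor-drug dose plus five library-drug doses (not always all listed) in √10 steps, and nuclei were counted after 5 days.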

[2] = compound: CN1CCC(CNc2ccc3ncc(-c4cccc(OC(F)(F)F)c4)n3n2)CC1 [SGI-1776] + Cc1cc(Nc2cc(N3CCN(C)CC3)nc(Sc3ccc(NC(=O)C4CC4)cc3)n2)n[nH]1 [Tozasertib] (partner 0.1 µM)
Summary of the method: as §1

[3] = compound: Nc1ccccc1NC(=O)c1ccc(CNC(=O)OCc2cccnc2)cc1 [Entinostat] + Cc1nc(NC(=O)N2CCC[C@H]2C(N)=O)sc1-c1ccnc(C(C)(C)C(F)(F)F)c1 [Alpelisib] (partner 2 µM)
Summary of the method: as §1

[4] = compound: Nc1ccccc1NC(=O)c1ccc(CNC(=O)OCc2cccnc2)cc1 [Entinostat] + O=C(c1cc(Cc2n[nH]c(=O)c3ccccc23)ccc1F)N1CCN(C(=O)C2CC2)CC1 [Olaparib] (partner 8 µM)
Summary of the method: as §1

## UMC-11
[1]; first compound 0.08 µM
  relative viability: 0.791
[1]; first compound 0.8 µM
  relative viability: 0.987
[1]; first compound 2.53 µM
  relative viability: 0.812
[1]; first compound 8 µM
  relative viability: 0.498
[2]; first compound 0.08 µM
  relative viability: 0.21
[2]; first compound 0.8 µM
  relative viability: 0.194
[2]; first compound 2.53 µM
  relative viability: 0.208
[2]; first compound 8 µM
  relative viability: 0.197
[3]; first compound 0.02 µM
  relative viability: 1.12
[3]; first compound 0.06325 µM
  relative viability: 1.01
[3]; first compound 0.2 µM
  relative viability: 0.702
[3]; first compound 0.6325 µM
  relative viability: 0.168
[3]; first compound 2 µM
  relative viability: 0.116
[4]; first compound 0.02 µM
  relative viability: 0.376
[4]; first compound 0.06325 µM
  relative viability: 0.345
[4]; first compound 0.2 µM
  relative viability: 0.242
[4]; first compound 0.6325 µM
  relative viability: 0.116
[4]; first compound 2 µM
  relative viability: 0.0922
